Measured values taken from patent publication US5595999A, “Guanidine derivatives” (Hoffmann-La Roche Inc., priority 1990, dated 1997).
Values belong to the molecule of their own block, whether it stands above or below them.

Legend:
[1] = molecular target: human thrombin (Homo sapiens, UniProt P00734); test: Inhibition of amidolytic activity of thrombin (chromogenic substrate S-2238); format: biochemical; details: human thrombin 0.5 nM final conc., S-2238, pH 7.8, room temperature
Procedure: (§1) A differential inhibition of thrombin and other serine proteases by the above compounds is desirable in order to obtain compounds having as high a specificity as possible and at the same time to avoid possible side-effects.
(§2) Specific chromogenic peptide substrates can be used to determine the inhibition of the catalytic activity of the above proteases. The inhibition of the amidolytic activity of thrombin and trypsin by the above guanidines was determined as described hereinafter.
(§3) The measurements were carried out on microtiter plates at room temperature. For this, in each well of the plate 150 μl of buffer (50 mM Tris, 100 mM NaCl, 0.1% polyethylene glycol; pH 7.8) were mixed with 50 μl of the inhibitor dissolved in DMSO and diluted in the buffer, and 25 μl of human thrombin (0.5 nM final conc.) were added. After incubation for 10 minutes, the reaction was started by the addition of chromogenic substrate S-2238 (H-D-Phe-Pip-Arg-paranitroaniline from Kabivitrum; 10 or 50 μm final conc.) and the hydrolysis of the substrate was followed spectrophotometrically on a kinetic microliter plate reader for 5 minutes. After graphical presentation of the inhibition curves, the Ki values were determined according to the method described in Biochem. J. 55, 1955, 170-171. The inhibition of trypsin was effected analogously, but using the substrate S-2251 (H-D-Val-Leu-Lys-paranitroaniline) in 200 and 750 μM final concentration.

[2] = molecular target: trypsin; test: Inhibition of amidolytic activity of trypsin (chromogenic substrate S-2251); format: biochemical; details: S-2251, 200 and 750 μM final concentration, pH 7.8, room temperature
Procedure: as §1, §2, §3

[3] = Toxicity in mice upon intravenous administration; details: mouse, in vivo
Procedure: The guanidines of formula I have a low toxicity. Thus, the products of Example 8, 13a, 14i and 18f have an LD50 of 30-50mg/kg in mice upon intravenous administration.

SMILES: N=C(N)N1CCCC(CNC(=O)[C@@H](Cc2ccccc2[N+](=O)[O-])NS(=O)(=O)c2ccc3ccccc3c2)C1 (mixture of isomers) [Example 13a, (R)-N-[(RS)-1-Amidino-3-piperidinylmethyl]-α-(2-naphthylsulfonamido)-o-nitrohydrocinnamamide]
- Ki [1]: 20.8 nM
- Ki [2]: 29200 nM
- LD50 [3]: 30 to 50 mg/kg

SMILES: N=C(N)N1CCCC(CNC(=O)[C@@H](Cc2c[nH]c3ccccc23)NS(=O)(=O)c2ccccc2[N+](=O)[O-])C1 (mixture of isomers) [Example 14i, (R)-N-[(RS)-1-Amidino-3-piperidinylmethyl]-α-(o-nitrobenzenesulfonamido)indole-3-propionamide]
- Ki [1]: 25 nM
- Ki [2]: 38000 nM
- LD50 [3]: 30 to 50 mg/kg

SMILES: N=C(N)N1CCCC(CNC(=O)[C@@H](CN2C(=O)C(=O)c3ccccc32)NS(=O)(=O)c2ccc3ccccc3c2)C1 (some centres unmarked) [Example 8]
- Ki [1]: 8.55 nM
- Ki [2]: 20100 nM
- LD50 [3]: 30 to 50 mg/kg

SMILES: N=C(N)N1CCCC(CNC(=O)[C@@H](Cc2ccccc2)NS(=O)(=O)c2ccc3ccccc3c2)C1 (stereo partly drawn) [Example 9, (R)-N-[(RS)-1-amidino-3-piperidinylmethyl]-α-(2-naphthylsulfonamido)hydrocinnamide]
- Ki [1]: 135 nM
- Ki [2]: 169000 nM

SMILES: N=C(N)N1CCCC(CNC(=O)[C@@H](CC(=O)c2ccccc2N)NS(=O)(=O)c2ccc3ccccc3c2)C1 (stereo partly drawn) [Example 18f, (R)-N-[(RS)-1-Amidino-3-piperidinylmethyl]-3-(o-aminobenzoyl)-2-(naphthylsulfonamido)propionamide]
- Ki [1]: 16 nM
- LD50 [3]: 30 to 50 mg/kg

Now from value to molecule:

- Ki [1]: 20.7 nM
- Ki [2]: 6300 nM
SMILES: N=C(N)N1CCC[C@@H](CNC(=O)[C@@H](Cc2c[nH]c3ccccc23)NS(=O)(=O)c2ccc(I)cc2)C1 [Example 17b, (R)-N-[(S)-1-Amidino-3-piperidinylmethyl]-α-(p-iodobenzenesulfonamido)indole-3-propionamide]

- Ki [1]: 58 nM
- Ki [2]: 10000 nM
SMILES: N=C(N)N1CCC[C@@H](COC(=O)[C@@H](Cc2c[nH]c3ccccc23)NS(=O)(=O)c2ccc(I)cc2)C1 [Example 17c, N-(p-Iodophenylsulfonyl)-D-tryptophan (R)-1-amidino-3-piperidinylmethyl ester]

- Ki [1]: 41.3 nM
SMILES: N=C(N)N1CCC[C@@H](CNC(=O)[C@@H](Cc2ccc3ccccc3c2)NS(=O)(=O)c2ccc(I)cc2)C1 [Example 17f, (R)-N-[(S)-1-Amidino-3-piperidinylmethyl]-α-(p-iodobenzenesulfonamido)-2-naphthylpropionamide]

- Ki [1]: 26.1 nM
- Ki [2]: 14800 nM
SMILES: N=C(N)N1CCC[C@@H](CNC(=O)[C@@H](Cc2ccc([N+](=O)[O-])cc2)NS(=O)(=O)c2ccc(I)cc2)C1 [Example 17j, (R)-N-[(S)-1-Amidino-3-piperidinylmethyl]-α-(p-iodo-benzenesulfonamido)-p-nitrohydrocinnamamide]
